Where a name gives a salt, the structure may show the parent alone. Read-outs that look alike come from different tables or passages of the source.
Experiments:
serotonin 1A receptor = target: T1, serotonin 1A receptor (Rattus norvegicus, UniProt P19327); test: Binding test on [3H] 8-hydroxy-dipropylaminotetralin, hippocampus receptor fraction; parameters: species or system SD rats
T1 construct: To the receptor fraction of the hippocampus were added a test compound and 0.5 nM of [^3H]; 8-hydroxy-dipropylaminotetralin; from tissue; host or cells: rat hippocampus membrane fraction
T1 sequence (P19327 1-422): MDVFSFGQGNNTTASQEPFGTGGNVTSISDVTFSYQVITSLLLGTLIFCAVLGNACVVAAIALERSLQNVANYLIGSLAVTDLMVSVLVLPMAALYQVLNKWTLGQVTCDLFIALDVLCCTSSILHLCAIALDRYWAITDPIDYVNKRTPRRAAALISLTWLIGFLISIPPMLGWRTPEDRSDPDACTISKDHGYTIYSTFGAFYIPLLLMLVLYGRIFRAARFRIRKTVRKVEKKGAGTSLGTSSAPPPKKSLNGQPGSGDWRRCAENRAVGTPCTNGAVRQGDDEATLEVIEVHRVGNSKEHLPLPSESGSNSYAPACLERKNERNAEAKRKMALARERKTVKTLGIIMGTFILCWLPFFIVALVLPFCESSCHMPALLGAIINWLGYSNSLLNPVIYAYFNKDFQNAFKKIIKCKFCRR
Protocol: (1) Binding test on serotonin 1A, serotonin 2 and α1 adrenalin receptors
The following reagents were employed in this test. • 1) Serotonin binoxalate (5-HT binoxalate, mfd. by Sigma Chemical Co.). • 2) Methysergide maleate (mfd. by RBI).
As radioisotope-labeled compounds, use was made of the following reagents (mfd. by NEN). • 3) [^3H] 8-Hydroxy-dipropylaminotetralin (8-OH-DPAT). • 4) [^3H]
(§1) Methysergide maleate was dissolved in distilled water before using.
(§2) Use was made of SD rats aged 6 to 8 weeks.
The rats were sacrificed by dcapitation to extirpate the cerebra. The hippocampus and cortex were separated therefrom and employed in the binding tests respectively on the serotonin 1A receptor and the serotonin 2 receptor.
The hippocampus was mixed with 50 times (on the wet weight basis) as much as 0.32 M sucrose solution while the cortex was mixed with 10 times as much the same solution. Each mixture was homogenized by using a Teflon glass homogenizer and centrifuged as 1,000× g for 10 min. The supernatant thus obtained was further centrifuged at 20,000× g for 20 min. The obtained precipitate was re-suspended in 50 times (based on the initial wet weight; in the case of the hippocampus) or 10 times (in the case of the cortex) as much a 50 Tris hydrochloride (pH 7.4) and incubated at room temperature for 30 min. After centrifuging at 20,000× g for 20 min, the obtained precipitate was further suspended and centrifuged twice each in the same manner. The precipitate thus obtained was suspended in 100 times (based on the initial wet weight; in the case of the hippocampus) or 20 times (in the case of the cortex) as much a 50 mM Tris hydrochloride solution (pH 7.4) to thereby give a receptor fraction. This receptor fraction was stored at −80° C. until using.
To the receptor fraction of the hippocampus were added a test compound and 0.5 nM of [^3H] 8-hydroxy-dipropylaminotetralin and the resultant mixture was incubated at room temperature for 30 min. Next, it was filtered through a glass filter with the use of a cell harvester. After washing the glass filter with 50 mM Tris hydrochloride (pH 7.4), the radioactivity of the receptor was measured with a liquid scintillation counter. The binding detected in the presence of 10 μM of serotonin binoxalate was referred to as the nonspecific binding.
(§3) IC50 was calculated by the probit method, while Ki was determined in accordance with the following formula: Ki=IC50(1+c/Kd) wherein c represents the concentration of the radioisotope-labeled compound, and Kd represents the dissociation constant of the radioisotope-labeled compound with respect to the receptor determined by Scatchard's analysis.

serotonin 2 receptor = target: T2, serotonin 2 receptor (Rattus norvegicus, UniProt P14842); test: Binding test on [3H] ketanserin, cerebral cortex receptor fraction; parameters: species or system SD rats; settings: 0.3 nM [3H] ketanserin, 37° C. 15 min, read-out: 5HT2
T2 construct: To the receptor fraction of the cerebral cortex were added a test compound and 0.3 nM of [^3H] ketanserin; from tissue; host or cells: rat cerebral cortex membrane fraction
T2 sequence (P14842 whole entry): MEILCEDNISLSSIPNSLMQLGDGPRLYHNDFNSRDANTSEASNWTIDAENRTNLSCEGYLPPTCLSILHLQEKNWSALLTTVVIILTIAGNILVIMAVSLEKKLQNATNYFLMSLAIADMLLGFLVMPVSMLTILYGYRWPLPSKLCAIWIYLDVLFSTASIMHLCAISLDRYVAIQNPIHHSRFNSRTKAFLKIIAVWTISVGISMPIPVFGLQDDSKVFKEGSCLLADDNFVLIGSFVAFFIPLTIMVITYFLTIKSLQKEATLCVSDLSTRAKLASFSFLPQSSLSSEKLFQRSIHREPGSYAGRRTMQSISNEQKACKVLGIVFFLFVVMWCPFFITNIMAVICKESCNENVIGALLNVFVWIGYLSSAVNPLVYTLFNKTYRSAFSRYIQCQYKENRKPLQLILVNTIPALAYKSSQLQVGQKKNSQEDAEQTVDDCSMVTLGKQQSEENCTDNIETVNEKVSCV
Protocol: as §1, §2
The rats were sacrificed by dcapitation to extirpate the cerebra.
Each mixture was homogenized by using a Teflon glass homogenizer and centrifuged as 1,000× g for 10 min. The supernatant thus obtained was further centrifuged at 20,000× g for 20 min. […] After centrifuging at 20,000× g for 20 min, the obtained precipitate was further suspended and centrifuged twice each in the same manner. […] This receptor fraction was stored at −80° C. until using.
To the receptor fraction of the cerebral cortex were added a test compound and 0.3 nM of [^3H] ketanserin and the resultant mixture was incubated at 37° C. for 15 min. Next, it was filtered through a glass filter with the use of a cell harvester. After washing the glass filter with 50 mM Tris hydrochloride (pH 7.4), the radioactivity of the receptor was measured with a liquid scintillation counter. The binding detected in the presence of 1 μM of methysergide was referred to as the nonspecific binding.
as §3

[1] = rat hippocampus receptor fraction, 0.5 nM [3H] 8-OH-DPAT, room temperature 30 min, read-out: 5HT1

SMILES | Ki (serotonin 1A receptor; [1]) [nM] | Ki (serotonin 2 receptor) [nM] | Ki (serotonin 1A receptor) [nM]
CCN1CCN(c2nc(-c3ccc4c(c3)OCO4)cc3ccccc23)CC1 [Example 46, 3-(3,4-Methylenedioxyphenyl)-1-(4-Ethylpiperazin-1-Yl)Isoquinoline Hydrochloride] | 58 | 12.7 | 
CCN1CCN(c2nc(-c3ccc(OCC(C)=O)cc3)cc3ccccc23)CC1 [Example 47, 1-(1-Ethylpiperazin-4-Yl)-3-(4-Acetonyloxyphenyl)Isoquinoline] | 25.3 | 2.6 | 
CCN1CCN(c2nc(-c3ccc(OCCCNC(C)=O)cc3)cc3ccccc23)CC1 [Example 50, 3-[4-(3-Acetamidepropoxy)Phenyl]-1-(4-Ethylpiperazin-1-Yl)Isoquinoline Hydrochloride] | 25.2 | 21.9 | 
CCN1CCN(c2nc(-c3ccc(OCC#N)cc3)cc3ccccc23)CC1 [Example 51, 3-(4-Cyanomethoxyphenyl)-1-(4-Ethylpiperazin-1-Yl)Isoquinoline Hydrochloride] | 103 | 1.87 | 
CCN1CCN(c2nc(-c3ccc(OCCCC#N)cc3)cc3ccccc23)CC1 [Example 53, 3-[4-(3-Cyanopropoxy)Phenyl]-1-(4-Ethylpiperazin-1-Yl)Isoquinoline Hydrochloride] | 61.2 | 1.78 | 
CCN1CCN(c2nc(-c3ccc(OCCCSC)cc3)cc3ccccc23)CC1 [Example 54, 3-[4-(3-Methylthiopropoxy)Phenyl]-1-(4-Ethylpiperazin-1-Yl)Isoquinoline Hydrochloride] | 62.1 | 4.9 | 
CCN1CCN(c2nc(-c3ccc(OCCCS(C)(=O)=O)cc3)cc3ccccc23)CC1 [Example 55, 3-[4-(3-Methylsulfonpropoxy)Phenyl]-1-(4-Ethylpiperazin-1-Yl)Isoquinoline Hydorchloride] | 10.4 | 15.3 | 
CCN1CCN(c2nc(-c3ccc(OCCn4ccnc4)cc3)cc3ccccc23)CC1 [Example 56, 3-{4-[2-(1-Imidazonyl)Ethoxy]phenyl}-1-(4-Ethylpiperazin-1-Yl)Isoquinoline Hydrochloride] | 37.4 | 59.5 | 
CCN1CCN(c2nc(-c3ccc(OCCCc4ccncc4)cc3)cc3ccccc23)CC1 [Example 57, 3-{4-[3-(4-Pyridyl)Propoxy]Phenyl}-1-(4-Ethylpiperazin-1-Yl)Isoquinoline Hydrochloride] | 57.2 | 4.6 | 
CCNC(=O)Oc1ccc(-c2cc3ccccc3c(N3CCN(CC)CC3)n2)cc1 [Example 59] |  | 14.3 | 16.3
CCN1CCN(c2nc(-c3ccc(C#N)cc3)cc3ccccc23)CC1 [Example 62, 3-(4-Cyanophenyl)-1-(4-Ethylpiperazin-1-Yl)Isoquinoline Hydrochloride] | 14.8 | 4 | 
CCN1CCN(c2nc(-c3ccc(C4=CCC(O)CC4)cc3)cc3ccccc23)CC1 (centres unmarked) [Example 64, 3-[4-(4-Hydroxy-1-Cyclohexen-1-Yl)Phenyl]-1-(4-Ethylpiperazin-1-Yl)Isoquinoline Hydrochloride] | 87 | 8.5 | 
CCN1CCN(c2nc(-c3ccc(N)cc3)cc3ccccc23)CC1 [Example 65, 3-(4-Aminophenyl)-1-(4-Ethylpiperazin-1-Yl)Isoquinoline Hydrochloride] | 60.1 | 33.5 | 
CCN1CCN(c2nc(-c3ccc(N(C)C)cc3)cc3ccccc23)CC1 [Example 66, 3-[4-(N,N-Dimethylamino)Phenyl]-1-(4-Ethylpiperazin-1-Yl)Isoquinoline Dihydrochloride] | 52.7 | 21.6 | 
CCN1CCN(c2nc(-c3ccc(NCCO)cc3)cc3ccccc23)CC1 [Example 67, 3-[4-(2-Hydroxyethyl)Aminophenyl]-1-(4-Ethylpiperazin-1-Yl)Isoquinoline Hydrochloride] | 27.3 | 6.6 | 
CCN1CCN(c2nc(-c3ccc(NC(C)=O)cc3)cc3ccccc23)CC1 [Example 68, 3-(4-Acetamidephenyl)-1-(4-Ethylpiperazin-1-Yl)Isoquinoline Hydrochloride] | 30.9 | 94.1 | 
CCC(=O)Nc1ccc(-c2cc3ccccc3c(N3CCN(CC)CC3)n2)cc1 [Example 69, 3-(4-Ethylcarbonylaminophenyl)-1-(4-Ethylpiperazin-1-Yl)Isoquinoline Hydrochloride] | 17.2 | 17.3 | 
CCN1CCN(c2nc(-c3ccc(NS(=O)(=O)CC)cc3)cc3ccccc23)CC1 [Example 71, 3-(4-Ethylsulfonylaminophenyl)-1-(4-Ethylpiperazin-1-Yl)Isoquinoline Hydrochloride] | 2 | 1.5 | 
CCCS(=O)(=O)Nc1ccc(-c2cc3ccccc3c(N3CCN(CC)CC3)n2)cc1 [Example 72, 3-(4-Propylsulfonylaminophenyl)-1-(4-Ethylpiperazin-1-Yl)Isoquinoline Hydrochloride] | 15 | 3.6 | 
CCN1CCN(c2nc(-c3ccc(S(N)(=O)=O)cc3)cc3ccccc23)CC1 [Example 74, 3-(4-Sulfonamidephenyl)-1-(4-Ethylpiperazin-1-Yl)Isoquinoline Hydrochloride] | 4.6 | 7.7 | 
CCN1CCN(c2nc(-c3ccc(S(=O)(=O)N4CCOCC4)cc3)cc3ccccc23)CC1 [Example 75, 3-[(4-Morpholinyl)Sulfonylphenyl]-1-(4-Ethylpiperazin-1-Yl)Isoquinoline Hydrochloride] | 7.7 | 10 | 
CCN1CCN(c2nc(-c3ccc(S(=O)(=O)N4CCSCC4)cc3)cc3ccccc23)CC1 [Example 76, 3-[(4-Thiomorpholinyl)Sulfonylphenyl]-1-(4-Ethylpiperazin-1-Yl)Isoquinoline Hydrochloride] | 5.7 | 8.9 | 
CCN1CCN(c2nc(-c3ccc(S(=O)(=O)N4CCS(=O)(=O)CC4)cc3)cc3ccccc23)CC1 [Example 77, 3-[(1,1-Dioxythiomorpholinyl)Sulfonylphenyl]-1-(4-Ethylpiperazin-1-Yl)Isoquinoline Hydrochloride] | 13.6 | 90.5 | 
CCN1CCN(c2nc(-c3ccc(CNS(=O)(=O)CC)cc3)cc3ccccc23)CC1 [Example 78, 3-(4-Ethylsulfonylaminomethylphenyl)-1-(4-Ethylpiperazin-1-Yl)Isoquinoline Hydrochloride] | 0.56 | 1.9 | 
CCN1CCN(c2nc(-c3ccc(CCNS(=O)(=O)CC)cc3)cc3ccccc23)CC1 [Example 79, 3-(4-Ethylsulfonylaminoethylphenyl)-1-(4-Ethylpiperazin-1-Yl)Isoquinoline Hydrochloride] | 5.8 | 23 | 
CCNS(=O)(=O)Cc1ccc(-c2cc3ccccc3c(N3CCN(CC)CC3)n2)cc1 [Example 80, 3-(4-Ethylaminosulfonylmethylphenyl)-1-(4-Ethylpiperazin-1-Yl)Isoquinoline Hydrochloride] | 0.8 | 16.3 | 
CCCNS(=O)(=O)Cc1ccc(-c2cc3ccccc3c(N3CCN(CC)CC3)n2)cc1 [Example 81, 3-(4-Propylaminosulfonylmethylphenyl)-1-(4-Ethylpiperazin-1-Yl)Isoquinoline Hydrochloride] | 1.1 | 15.1 | 
CCN1CCN(c2nc(-c3ccc(CS(=O)(=O)N(CC)CC)cc3)cc3ccccc23)CC1 [Example 82, 3-[4-(N,N-diethylamino)sulfonylmethylphenyl]-1-(4-ethylpiperazin-1-yl)isoquinoline Hydrochloride] | 0.2 | 10.8 | 
